Experimental data taken from patent US4287190A, “Complexes of bivalent copper” (priority 1979, dated 1981).

Legend:
[1] = tested on: Carrageenan paw oedema; assay: Carrageenan-induced paw oedema in rats, topically applied copper-salicylates; details: topical
Description: All materials applied to shaved dorsal skin
in vehicle (= DMSO--glycerol), 4:1 v/v, 5 ml/kg except as
*Vehicle = ethanolglycerol (4:1 v/v)

[2] = tested on: Zymosan paw oedema; assay: Zymosan-induced paw oedema in rats, topically applied copper-salicylates; details: topical, DMSO-glycerol 4:1 v/v, 5 ml/kg
[3] = tested on: polyarthritis induced in rats with Mycobacterium tuberculosis in squalane; assay: Polyarthritis induced with Mycobacterium tuberculosis in squalane; assay type: in vivo; details: Cu[H Sal]2. DMSO formulation
[4] = tested on: artificially induced inflammation in rats (sodium carrageenan); assay: Carrageenan foot swelling after topical treatment (Example 5, FIG. 2); assay type: in vivo, Male Wistar rats; details: topical, 154, 231, 462 and 770 mg, about 6 hours before carrageenan
Description: Male Wistar rats (average weight 250 g) were anaesthetised with diethyl ether and an area of c. 20 sq.cm was shaven high on their backs. The rats were then separated into 7 groups. Group 1, the control rats were not treated. Group 2 rats were treated by the application of a mixture of alcohol and glycerol (4:1), the carrier used for the compound Cu[H Sal]2. C2 H5 OH. Group 3 rats were treated with a 7% w/v solution of salicylic acid in a mixture of alcohol and glycerol (4:1). Group 4, 5, 6 and 7 rats were treated with amounts of Cu[H Sal]2. C2 H5 OH composition prepared according to example 3 containing 154 mg, 231 mg, 462 mg, and 770 mg respectively, of Cu[H Sal]2. C2 H5 OH.
About 6 hours after the topical treatment of the rats, inflammation was induced in a foot of each rat in each of the groups by the injection of 0.1 ml of 1% saline solution of sodium carrageenan into a foot pad of each rat. The inflammation of the feet of the rats in each group was then monitored by the swelling of the feet with a micrometer screw-gauge.
The results are shown in FIG. 2 wherein the curves represent the increase in paw thickness of the rats with time after the injection of the inflammatory agent. The curves 1 to 7 represent the swelling of the paws of the rats of groups 1 to 7 respectively.

[5] = DA × Lewis, 2 Hour, DMSO-glycerol 4:1 v/v, 5 ml/kg
[6] = DA × Lewis, 4 Hour, DMSO-glycerol 4:1 v/v, 5 ml/kg
[7] = Wistar, 2 Hour, DMSO-glycerol 4:1 v/v, 5 ml/kg
[8] = Wistar, 4 Hour, DMSO-glycerol 4:1 v/v, 5 ml/kg

Compound	% Inhibition of paw oedema induced with Carrageenan [1, 5] [%]	% Inhibition of paw oedema induced with Carrageenan [1, 6] [%]	% Inhibition of paw oedema induced with Carrageenan [1, 7] [%]	% Inhibition of paw oedema induced with Carrageenan [1, 8] [%]	% Inhibition of paw oedema induced with Zymosan ([2]; DA × Lewis, 2 Hour) [%]	% Inhibition of paw oedema induced with Zymosan ([2]; DA × Lewis, 4 Hour) [%]	% Inhibition of paw oedema induced with Zymosan ([2]; Wistar, 1 Hour) [%]	% Inhibition of paw oedema induced with Zymosan ([2]; Wistar, 2 Hour) [%]	effect on the progress of polyarthritis [3]	% Inhibition of paw oedema induced with Carrageenan ([1]; Wistar, 2 Hour, ethanol-glycerol 4:1 v/v, 5 ml/kg) [%]	% Inhibition of paw oedema induced with Carrageenan ([1]; Wistar, 2 Hour, ethanol-glycerol 4:1 v/v, 15 ml/kg) [%]	% Inhibition of paw oedema induced with Carrageenan ([1]; Wistar, 4 Hour, ethanol-glycerol 4:1 v/v, 5 ml/kg) [%]	% Inhibition of paw oedema induced with Carrageenan ([1]; Wistar, 4 Hour, ethanol-glycerol 4:1 v/v, 15 ml/kg) [%]	anti-inflammatory effect (increase in paw thickness with time) [4]
CS(C)=O.O=C([O-])c1ccccc1O.O=C([O-])c1ccccc1O.[Cu+2] [Cu[H Sal]2 . DMSO, copper salicylate DMSO]	47	39	46	53	36	22	43	21	effective on the progress of polyarthritis					
copper salicylate ethanolate [Cu[H Sal]2. C2 H5 OH]										24	58	32	53	clearly shows the anti-inflammatory effect
O=C(O)c1ccccc1O [Salicylic acid (alone), Salicylic acid]	44	32	14	18	-08	-05	22	16						
CC(=O)[O-].CC(=O)[O-].[Cu+2] [Cu(OAc)]			04	11	14	04	12	12						
